Patent US20050153943A1, “Methods of simultaneously treating mucositis and fungal infection” (priority 2002, published 2005)
Values after ≈ are worked out from the molar mass of the structure shown. Counter-ions that a name gives are not always drawn. Marks after values point to notes of the source that are not given here.

Legend:
Aspergillus f. [1] = experiment: Direct comparison of CMT-3 and Amphotericin B, agar plates (Example 39); format: cell-based
Method: The plates were prepared as described above, using […], 0.50, 1.00 and 2.00 concentrations of each of the drugs tested. DMSO was used as a control

Aspergillus f. [2] = experiment: as above; format: cell-based; remark: listed apart in the source
Penicillium spores = experiment: Fungistatic or fungicidal activity: pre-treatment of spores, dilution, regrowth on agar (Example 41); format: cell-based; conditions: for Growth rate of Penicillium in control cultures with low drug concentration: 0.01 and 0.05 μl/ml, no pre-treatment; for Type of antifungal activity (fungistatic or fungicidal): against Penicillium; for Growth of Penicillium on agar gels after pretreatment of spores: pretreatment with 10 and 50 μl/ml for 24 hours at 30° C., diluted 1000 times, 48 hours on agar
Method: In the pre-treatment phase of the experiment, Penicillium spores were suspended in PBS to achieve a spore count of 10^7/ml. CMT-3 and Amphotericin B were dissolved in DMSO to reach a concentration of 1.0 mg/ml as stock solutions. 10 or 50 μl aliquots of these stock solutions were added to the incubation mixture (containing 1.0 ml of 10^7/ml of Penicillium spores in PBS) to achieve a final concentration of 10 μg/ml or 50 μg/ml, respectively, for both drugs. The various incubations of Penicillium were carried out for 24 hours at 30° C.
After the pre-treatment phase, the reaction mixtures were diluted 1000 times with PBS, reducing the concentration of both drugs to 0.01 μg/ml or 0.05 μg/ml, and reducing the Penicillium spore count to 10^4/ml. These drug concentrations of both CMT-3 and Amphotericin B would not be expected to inhibit the growth of the viable Penicillium spores.
Controls were then prepared. Before incubation, each tube was either not diluted further, or diluted to ½ or ¼ with PBS to produce tubes with three different spore counts, ie, 10^4/ml, or 0.5×10^4/ml, or 0.25×10^4/ml. These cultures were then inoculated on potato dextrose agar gels in 24-well plates, and incubated at 30° C. for 48 hours to determine the rate of growth of the fungus as described before.
The controls were prepared from the suspension in the pre-treatment phase containing only Penicillium spores 10^7/ml, and PBS. This control was diluted by 1000 times with PBS to produce a spore count of 10^4/ml. 1.0 ml of this diluted spore suspension was added to eight tubes. The stock solutions of CMT-3 and Amphotericin B, and DMSO were also diluted by 1000 times with PBS (the new concentration being 1.0 μg/ml for both drugs and 0.1% for DMSO), and 10 or 50 μl of these solutions was added into the above tubes. The final concentrations in each tube was either 0.01 μg/ml or 0.05 μg/ml for both drugs (CMT-3 or AmB), or 0.001% or 0.005% for DMSO. These tubes were further treated as described above to determine the growth of the fungus as controls.

Scedosporium Apiospermum = experiment: IC50 and MIC on microplate agar gels (Example 40); format: cell-based; conditions: agar gel, 0.25-4.00 μg/ml, 30° C., 3 days; NI = no detectable inhibition
Method: (§1) Each drug was dissolved in DMSO (1.0 mg/ml) as a stock solution and stored at −20° C. Just prior to use, each stock solution was thawed and diluted in DMSO to produce 6 different 100× concentrations. Potato dextrose agar was dissolved in distilled water (39 g/L) and sterilized at […] (250° F.) for 15 min. The agar solution was mixed with each drug (in a water bath at 60° C.) to make a series of final concentrations, i.e. 0.00, 0.25, 0.50, 1.00, 2.00, 4.00 μg/ml. The mixtures were then transferred to 24-well plates (1 ml/well). After the gel had formed, the fungus in PBS (spore count=1-5×10^4/ml) was inoculated by pipetting 10 μl onto each gel. The plates were incubated at 30° C. for different times, depending on the requirement of each species, e.g. 24 hours for Penicillium, Rhizopus, Tricothecium, Ulocladium, Absidia, Aspergilus, Caindida, Cunninghamella, 3 days for Scedosporium, and 5 days for Fonsecae and Phialophora.
(§2) “*” indicates better than or similar results to Amphotericin B. “NI” indicates no detectable inhibition.

Rhizopus Species = experiment: IC50 and MIC on microplate agar gels (Example 40); format: cell-based; conditions: agar gel, 0.25-4.00 μg/ml, 30° C., 24 hours; NI = no detectable inhibition
Method: as §1, §2

Absidia Species = experiment: IC50 and MIC on microplate agar gels (Example 40); format: cell-based; conditions: agar gel, 0.25-4.00 μg/ml, 30° C., 24 hours; NI = no detectable inhibition
Method: as §1, §2

Candida Albicans = experiment: IC50 and MIC on microplate agar gels (Example 40); format: cell-based; conditions: agar gel, 0.25-4.00 μg/ml, 30° C., 24 hours; NI = no detectable inhibition
Method: as §1, §2

Ulocladium Species = experiment: IC50 and MIC on microplate agar gels (Example 40); format: cell-based; conditions: agar gel, 0.25-4.00 μg/ml, 30° C., 24 hours; NI = no detectable inhibition
Method: as §1, §2

Aspergilus Fumigatus = experiment: IC50 and MIC on microplate agar gels (Example 40); format: cell-based; conditions: agar gel, 0.25-4.00 μg/ml, 30° C., 24 hours; NI = no detectable inhibition
Method: as §1, §2

Penicillium Species = experiment: IC50 and MIC on microplate agar gels (Example 40); format: cell-based; conditions: agar gel, 0.25-4.00 μg/ml, 30° C., 24 hours; NI = no detectable inhibition
Method: as §1, §2

Fonsecae Species = experiment: IC50 and MIC on microplate agar gels (Example 40); format: cell-based; conditions: agar gel, 0.25-4.00 μg/ml, 30° C., 5 days; NI = no detectable inhibition
Method: as §1, §2

[3] = test system: 11 different species of fungi; experiment: Summary of Example 40 over the whole panel; format: cell-based; conditions: 11 tested fungi, up to 4.00 μg/ml
Method: as §1, §2

Rhizopus sp. = experiment: Fungal growth on SABHI agar containing CMT (Example 38); format: cell-based; conditions: 25 μg/ml agar, Example 38
Method: The following fungi were inoculated onto potato dextrose agar (PDA) from stock cultures and incubated aerobically at 30° C.: Aspergillus [NT] 1022, Penicillium sp. (laboratory isolate), Candida albicans, ATCC 14053, and Rhizopus sp. […] The conidia were suspended in 0.9% saline and the turbidity was adjusted to match a 0.5 MacFarland standard (equivalent to approximately 1.5×10^8 cells). Candida albicans was suspended in saline and adjusted to 0.5 MacFarland in a similar manner. These suspensions were diluted 1:100 in sterile 0.9% saline. SABHI Agar (Difco) pH 7.0 was prepared in 100 ml amounts and sterilized at 121° C. for 15 min. […] SABHI Agar plates of each CMT and SAHBI agar without CMT using dimethylsulphoxide (DMSO) as a control were inoculated with 10 μl of conidia suspension of Aspergillus fumigatus, Penicillium sp. and Rhizopus sp. and 10 μl suspension of Candida albicans prepared as described above. The plates were then incubated aerobically for 24 hour and for 48 hours at 30° C. The results are set forth in Table 1 (24 hr. incubation) and Table 2 (48 hr. incubation). [table]

Phialophora Verrucosa = experiment: IC50 and MIC on microplate agar gels (Example 40); format: cell-based; conditions: agar gel, 0.25-4.00 μg/ml, 30° C., 5 days; NI = no detectable inhibition
Method: as §1, §2

Tricothecium Species = experiment: IC50 and MIC on microplate agar gels (Example 40); format: cell-based; conditions: agar gel, 0.25-4.00 μg/ml, 30° C., 24 hours; NI = no detectable inhibition
Method: as §1, §2

Cunninghamella Species = experiment: IC50 and MIC on microplate agar gels (Example 40); format: cell-based; conditions: agar gel, 0.25-4.00 μg/ml, 30° C., 24 hours; NI = no detectable inhibition
Method: as §1, §2

[4] = Toxicity in vivo (statement); conditions: at 2.0 μg/ml concentration; unlike AmB
[5] = test system: eleven different species of fungi; conditions: cited from earlier work
[6] = single dose of two 100 mg minocycline HCl tablets; cited from earlier work
[7] = 250 mg every six hours over a twenty-four hour period; cited from earlier work

Row | SMILES | Growth grade at Conc. 0.125 μg/ml (Aspergillus f. [1]) | Growth grade at Conc. 0.50 μg/ml (Aspergillus f. [1]) | Fungal growth inhibited (Aspergillus f. [1]; 1.0 μg/ml) [%] | Fungal growth inhibited (Aspergillus f. [1]; 2.0 μg/ml) [%] | Growth grade at Conc. 2.00 μg/ml (Aspergillus f. [1]) | Growth grade at Conc. 0.25 μg/ml (Aspergillus f. [2]) | Growth rate of Penicillium in control cultures with low drug concentration (Penicillium spores) | Type of antifungal activity (fungistatic or fungicidal) (Penicillium spores) | Growth of Penicillium on agar gels after pretreatment of spores (Penicillium spores) | IC50 (Scedosporium Apiospermum) [µg/mL] | MIC (Scedosporium Apiospermum) | IC50 (Rhizopus Species) [µg/mL] | MIC (Rhizopus Species) [µg/mL] | IC50 (Absidia Species) [µg/mL] | MIC (Absidia Species) | IC50 (Candida Albicans) [µg/mL] | MIC (Candida Albicans) [µg/mL] | IC50 (Ulocladium Species) [µg/mL] | MIC (Ulocladium Species) | IC50 (Aspergilus Fumigatus) [µg/mL] | other results
1 | C[C@@H]1[C@H](O)[C@@H](C)/C=C/C=C/C=C/C=C/C=C/C=C/C=C/[C@H](O[C@@H]2O[C@H](C)[C@@H](O)[C@H](N)[C@@H]2O)C[C@@H]2O[C@](O)(C[C@@H](O)C[C@@H](O)[C@H](O)CC[C@@H](O)C[C@@H](O)CC(=O)O[C@H]1C)C[C@H](O)[C@H]2C(=O)O [AmB, Amphotericin B] | 4 (Level of growth in the absence of anti-fungal agent (control).) | 1 (75% reduction in growth in colonies compared to control.) | 100 | 100 | 0 (complete inhibition of growth.) | 2 (50% reduction in growth of colonies compared to control.) | did not inhibit the growth | fungistatic | same rate of growth as PBS and DMSO controls | 4.0 (≈ 4.33 µM) | >4 µg/mL | 0.4 (≈ 0.433 µM) | 1.0 (≈ 1.08 µM) | 1.0 (≈ 1.08 µM) | 4.0 µg/mL (≈ 4.33 µM) | 0.5 (≈ 0.541 µM) | 1.0 (≈ 1.08 µM) | 1.0 (≈ 1.08 µM) | 2.0 µg/mL (≈ 2.16 µM) | 0.8 (≈ 0.866 µM) | Growth grade at Conc. 1.00 μg/ml (Aspergillus f. [1]; 1.00 μg/ml): 0 (complete inhibition of growth.); MIC (Aspergilus Fumigatus): 2.0 µg/mL (≈ 2.16 µM); IC50 (Penicillium Species): 0.12 µg/mL (≈ 0.13 µM); MIC (Penicillium Species): 0.25 µg/mL (≈ 0.271 µM); IC50 (Fonsecae Species): 4.0 µg/mL (≈ 4.33 µM); MIC (Fonsecae Species): >4.0 µg/mL; Antifungal activity over the panel (summary in words) [3]: the same or less antifungal activity than CMT-3
2 | NC(=O)C1=C(O)C[C@@H]2C[C@@H]3Cc4cccc(O)c4C(=O)C3=C(O)[C@]2(O)C1=O [COL 3, 6-demethyl-6-deoxy-4-dedimethylaminotetracycline] | 4 (Level of growth in the absence of anti-fungal agent (control).) | 1 (75% reduction in growth in colonies compared to control.) | 95 | 100 | 0 (complete inhibition of growth.) | 2 (50% reduction in growth of colonies compared to control.) | did not inhibit the growth | fungicidal | little or no growth | 0.2 (≈ 0.539 µM) | 1.5* μg/ml | 0.8 (≈ 2.15 µM) | 2.0 (≈ 5.39 µM) | 1.5 (≈ 4.04 µM) | 4.0* μg/ml | 1.0 (≈ 2.69 µM) | 2.0 (≈ 5.39 µM) | 0.25 (≈ 0.673 µM) | 1.0* μg/ml | 0.5 (≈ 1.35 µM) | Anti-fungal activity (summary in words) (Rhizopus sp.): inhibited; IC50 (Phialophora Verrucosa): 1.5 µg/mL (≈ 4.04 µM); MIC (Phialophora Verrucosa): 4.0* μg/ml; IC50 (Tricothecium Species): 0.2 µg/mL (≈ 0.539 µM); MIC (Tricothecium Species): 1.5* μg/ml; IC50 (Cunninghamella Species): 2.0 µg/mL (≈ 5.39 µM); MIC (Cunninghamella Species): 4.0* μg/ml; MIC (Aspergilus Fumigatus): 1.0* μg/ml; IC50 (Penicillium Species): 0.2 µg/mL (≈ 0.539 µM); MIC (Penicillium Species): 0.5 µg/mL (≈ 1.35 µM); IC50 (Fonsecae Species): 1.0 µg/mL (≈ 2.69 µM); MIC (Fonsecae Species): 4.0* μg/ml; Toxicity in vivo [4]: very little toxicity; Antifungal activity over the panel (summary in words) [3]: effective on all 11 tested fungi; Anti-fungal activity in vitro (Lu et al.) [5]: anti-fungal activity with eight of the eleven species
3 | CN(C)c1ccc(O)c2c1C[C@H]1C[C@H]3[C@H](N(C)C)C(O)=C(C(N)=O)C(=O)[C@@]3(O)C(O)=C1C2=O [minocycline HCl] | – | – | – | – | – | – | – | – | – | – | – | – | – | – | – | – | – | – | – | – | average minocycline serum level [6]: 2.24 µg/mL
4 | CN(C)[C@@H]1C(O)=C(C(N)=O)C(=O)[C@@]2(O)C(O)=C3C(=O)c4c(O)cccc4[C@@](C)(O)[C@H]3C[C@@H]12 [tetracycline HCl] | – | – | – | – | – | – | – | – | – | – | – | – | – | – | – | – | – | – | – | – | peak plasma concentration [7]: approximately 3 μg/ml
